Columns and labels:
[1] = test system: GBM8 (high-passage patient-derived GBM line); assay: Drug screening of GBM8 tumor foci on OBSCs; format: cell-based, human; settings: GBM8 on OBSCs
Method in brief: (§1)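 Scores integrate therapeutic windows between tumor kill and slice toxicity (at DSS thresholds, EC50 slopes, curve areas) plus tumor-behavior parameters, giving −100 to +100. Tumor viability came from bioluminescence three days after drug or radiation, normalized to day-one fluorescence.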

[2] = test system: MB231Br (breast cancer metastasis to brain); assay: Drug screening of MB231Br tumor foci on OBSCs; format: cell-based, human
[3] = test system: MG-II patient tumor tissue (WHO grade II meningioma); assay: Drug screening of uncultured patient tumor tissue MG-II on OBSCs; format: cell-based; settings: Homo sapiens
Description: (§2) Tumor cells were seeded onto OBSCs 2h after slicing as described above. One day after tumor seeding, six concentrations of each drug were diluted in the media underneath each culture insert, or XRad was applied using an X-Rad 320 Precision X-ray machine (n = 4 tumor foci per concentration; n ≥ 24 tumor foci per drug per cell line). Three days after treatment, the bioluminescence of live tumor cells was measured using an AMI optical imager (Spectral Instruments) and dose-response curves were generated. Tumor survival was normalized to day one tumor fluorescence and compared to an untreated control group.
(§3) To engraft onto OBSCs, the cryopreserved/thawed or fresh brain tumor tissue was filtered through a 100 μm cell strainer. Each 50 mg of tissue was transfected with 1mL mcherry-FLuc Lentivirus at 1.5e7 vg/ml with 1μL polybrene for 4h at 37°C. After incubation, the brain tumor tissue was washed with PBS three times to remove the residual virus and reconstituted in PBS with a final volume of 150 μL. Then the tissue solution was engrafted atop OBSCs at ∼0.5 mg tissue in 3 μL of PBS on each hemisphere of the slice. The OBSC engrafted with patient tumor tissue was incubated at 37°C with 5% CO2 and 95% humidity. The BSM was changed after 24h and subsequently every 3 days. Tumor treatment studies were executed as described above for tumor lines. The viability of the patient tissue was measured by an AMI optical imaging system with the addition of 1.5 mg/mL luciferin underneath the culture insert.
(§4) Several weighted parameters were factored into an overall drug sensitivity score.
(§5) For DSS parameters 1–6, therapeutic windows were calculated by comparing OBSC toxicity and tumor response at the doses where tumor kill passed through the DSS parameter (Table S1 and S3). For DSS parameter 7, the therapeutic window was calculated by comparing the slopes through the tumor EC50 and the OBSC tox EC50. For DSS parameter 8, the therapeutic window was calculated by comparing the areas under tumor kill and OBSC tox curves. Normalized therapeutic window ratios for DSS parameters 1–8 within each drug-tumor-OBSC interaction were calculated in the following manner: within each window, values ranged from +1 to −1, where values approaching +1 signify increasing tumor kill relative to normal tissue toxicity, and values approaching −1 indicate agents where tumors remained highly viable while toxicity to the normal OBSC tissue was elevated. DSS parameters 9–11 were determined based on the behavior of the tumor in response to the drug, as defined above.
(§6) All individually weighed parameters were added together to generate the DSS. Overall DSS from 0 to 100 signify increasing efficacy in tumor kill relative to OBSC toxicity, while scores from 0 to −100 describe scenarios in which tumors thrive more effectively than OBSCs for a given treatment. Dose-response values were calculated via linear interpolation of raw data, not from best-fit curve equations.

[4] = test system: PDIPG (low-passage pediatric patient-derived line); assay: Drug screening of PDIPG tumor foci on OBSCs; format: cell-based, human; settings: PDIPG on OBSCs
Method in brief: as §1

[5] = test system: MS21 (low-passage patient-derived GBM line); assay: Drug screening of MS21 tumor foci on OBSCs; format: cell-based, human; settings: MS21 on OBSCs
Method in brief: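 Drug effects on tumor foci grown on brain slices are quantified by bioluminescence three days after treatment, relative to untreated foci and day-one fluorescence. Efficacy versus slice toxicity is combined into a weighted drug sensitivity score.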

[6] = test system: PIS patient tumor tissue (intracranial sarcoma); assay: Drug screening of uncultured patient tumor tissue PIS on OBSCs; format: cell-based, human; settings: Homo sapiens, PIS on OBSCs
Method in brief: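 Uncultured patient tumour tissue, transduced with mCherry-FLuc lentivirus, engrafted on organotypic brain slice cultures (OBSCs); six drug concentrations or X-ray dosing given one day after seeding, n = 4 foci per concentration. Bioluminescence with luciferin read three days post-treatment, normalised to day one and untreated controls; drug sensitivity score combines weighted therapeutic-window parameters versus OBSC toxicity (−100 to 100).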

[7] = test system: U373WT (wild-type established GBM line); assay: Drug screening of U373WT tumor foci on OBSCs; format: cell-based, human; settings: U373 WT on OBSCs
Method in brief: as §1

[8] = test system: LN229 (established GBM line); assay: Drug screening of LN229 tumor foci on OBSCs; format: cell-based, human
Method in brief: as §1

[9] = test system: PGBM-R patient tumor tissue (recurrent tumor from same patient as PGBM); assay: Drug screening of uncultured patient tumor tissue PGBM-R on OBSCs; format: cell-based, human
Description: as §2, §3, §4, §5, §6

[10] = test system: U373KO (RAD18 knockout of U373WT via CRISPR); assay: Drug screening of U373KO tumor foci on OBSCs; format: cell-based, human; settings: U373 KO on OBSCs
Method in brief: as §1

[11] = area under the dose-response curve, trapezoidal rule
[12] = dose required to kill 10% of the tumor
[13] = dose required to kill 25% of the tumor
[14] = dose required to kill 75% of the tumor
[15] = Homo sapiens, dose required to kill 90% of the tumor, read-out: EC90
[16] = Homo sapiens, dosed day 1, survival via bioluminescence day 4, linear interpolation, read-out: IC50
[17] = dose required to kill 50% of the tumor
[18] = dose required to kill 90% of the tumor
[19] = Homo sapiens, U373 MG, dose required to kill 50% of the tumor
[20] = Homo sapiens, U373 MG, dose required to kill 90% of the tumor
[21] = Homo sapiens, U373 MG, dosed day 1, survival via bioluminescence day 4, linear interpolation

Cn1nnc2c(C(N)=O)ncn2c1=O [Temozolomide]
Killing at highest dose [1]: 1.00E+00 fraction of tumor population killed
AUC [1, 11]: 9.52E+01
EC10 [1, 12]: 1.52 µM
EC25 [1, 13]: 3.79 µM
EC75 [1, 14]: 31.2 µM
Slope ([1]; slope through the EC50): -6.60E-02
EC50 ([1]; Homo sapiens, dose required to kill 50% of the tumor, read-out: EC50): 7.58 µM
EC90 [1, 15]: 167 µM
IC50 [1, 16]: 7.6 µM
EC50 ([2]; Homo sapiens, MB231BR on OBSCs, dose required to kill 50% of the tumor): > 10 µM
EC90 ([2]; Homo sapiens, MB231BR on OBSCs, dose required to kill 90% of the tumor): > 10 µM
IC50 ([2]; Homo sapiens, MB231Br on OBSCs, dosed day 1, survival via bioluminescence day 4, linear interpolation): > 10 µM
Killing at highest dose ([2]; MB231BR on OBSCs): -3.30E-01 fraction of tumor population killed
AUC ([2]; MB231BR on OBSCs, area under the dose-response curve, trapezoidal rule): 2.58E+03
EC50 [3, 17]: > 100 µM
EC90 [3, 18]: > 10 µM
EC90 [4, 15]: > 10 µM
IC50 [4, 16]: > 10 µM
Killing at highest dose [4]: 2.90E-01 fraction of tumor population killed
AUC [4, 11]: 1.88E+03
EC10 [4, 12]: 5 µM
EC25 [4, 13]: 667 µM
Slope ([4]; slope through the EC50): -4.80E-05
Killing at highest dose [5]: -8.20E-01 fraction of tumor population killed
AUC [5, 11]: 2.37E+03
EC25 [5, 13]: 417 µM
EC75 [5, 14]: 1250 µM
Slope ([5]; slope through the EC50): 5.47E-04
EC50 [6, 17]: > 100 µM
EC90 [6, 18]: > 10 µM
EC50 [7, 19]: > 10 µM
EC90 [7, 20]: > 10 µM
IC50 [7, 21]: > 10 µM
Killing at highest dose [7]: 2.20E-01 fraction of tumor population killed
AUC [7, 11]: 1.52E+03
EC10 [7, 12]: 67.3 µM
EC25 [7, 13]: 96.2 µM
Slope ([7]; slope through the EC50): -9.14E-06
Killing at highest dose [8]: 3.50E-01 fraction of tumor population killed
EC50 ([8]; Homo sapiens, LN-229, dose required to kill 50% of the tumor): > 10 µM
EC90 ([8]; Homo sapiens, LN-229, dose required to kill 90% of the tumor): > 10 µM
IC50 ([8]; Homo sapiens, LN-229, dosed day 1, survival via bioluminescence day 4, linear interpolation): > 10 µM
AUC [8, 11]: 1.53E+03
EC10 [8, 12]: 59.4 µM
EC25 [8, 13]: 460 µM
Slope ([8]; slope through the EC50): -4.00E-05
EC90 ([9]; Homo sapiens, PGBM-R on OBSCs, dose required to kill 90% of the tumor): > 10 µM
DSS (drug sensitivity score) ([9]; PGBM-R patient tissue, scale -100 to +100): 17
EC50 [10, 19]: 1160 µM
EC90 [10, 20]: > 10 µM
IC50 [10, 21]: 1160 µM
Killing at highest dose [10]: 5.40E-01 fraction of tumor population killed
AUC [10, 11]: 8.89E+02
EC10 [10, 12]: 3.85 µM
EC25 [10, 13]: 9.62 µM
Slope ([10]; slope through the EC50): -8.67E-04

— paper PMC10313921, “A living ex vivo platform for functional, personalized brain cancer diagnosis” (Cell Reports Medicine, 2023)
